# Laboratory results published in ChEMBL document CHEMBL1201862, “PubChem BioAssay data set” (2004).
#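 Grown in 96-well plates, cells were treated for 48 hours with each compound at five concentrations. Insufficient inhibition: endpoint recorded as highest concentration tested. At the GI50, growth is halved.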 Activity calls are given as the source filed them. No stated cut-off is given here; in the data, active = GI50 up to about 1.1 µM and inactive = higher.
# How the values were obtained:
# Assay in all cases: DTP human tumour cell line panel, 48 h
# EKVX = tested on: EKVX
# UACC-257 = tested on: UACC-257
# KM-20L2 = tested on: KM-20L2
# SR = tested on: SR
# RXF 393 = tested on: RXF 393
# NCI-H23 = tested on: NCI-H23
# SF-539 = tested on: SF-539
# NCI-H226 = tested on: NCI-H226
# SW-620 = tested on: SW-620
# UO-31 = tested on: UO-31
# CCRF-CEM = tested on: CCRF-CEM
# U-251 = tested on: U-251
# K562 = tested on: K562
# HCT-116 = tested on: HCT-116
# HCT-15 = tested on: HCT-15
# RPMI-8226 = tested on: RPMI-8226
# HL-60 = tested on: HL-60
# LXFL 529 = tested on: LXFL 529
# SNB-19 = tested on: SNB-19
# SN12C = tested on: SN12C
# HCC 2998 = tested on: HCC 2998
# Malme-3M = tested on: Malme-3M
# UACC-62 = tested on: UACC-62
# SNB-78 = tested on: SNB-78
# A549 = tested on: A549
# LOX IMVI = tested on: LOX IMVI
# NCI-H460 = tested on: NCI-H460
# DMS-273 = tested on: DMS-273
# TK-10 = tested on: TK-10
# HOP-62 = tested on: HOP-62
# SK-OV-3 = tested on: SK-OV-3
# DMS-114 = tested on: DMS-114
# SF-295 = tested on: SF-295
# SNB-75 = tested on: SNB-75
# KM12 = tested on: KM12
# SF-268 = tested on: SF-268
# 786-0 = tested on: 786-0
# MOLT-4 = tested on: MOLT-4
# NCI-H522 = tested on: NCI-H522
# IGROV-1 = tested on: IGROV-1
# OVCAR-8 = tested on: OVCAR-8
# OVCAR-3 = tested on: OVCAR-3
# M14 = tested on: M14
# HT-29 = tested on: HT-29
# SK-MEL-28 = tested on: SK-MEL-28
# ACHN = tested on: ACHN
# DLD-1 = tested on: DLD-1
# COLO 205 = tested on: COLO 205
# MCF7 = tested on: MCF7
# OVCAR-4 = tested on: OVCAR-4
# MDA-N = tested on: MDA-N
# DU-145 = tested on: DU-145
# MDA-MB-231 = tested on: MDA-MB-231
# BT-549 = tested on: BT-549
# PC-3 = tested on: PC-3
# SK-MEL-2 = tested on: SK-MEL-2
# Hs-578T = tested on: Hs-578T
# OVCAR-5 = tested on: OVCAR-5
# NCI/ADR-RES = tested on: NCI/ADR-RES
# HOP-92 = tested on: HOP-92
# CAKI-1 = tested on: CAKI-1
# MDA-MB-435 = tested on: MDA-MB-435
# T47D = tested on: T47D
# A498 = tested on: A498
# SK-MEL-5 = tested on: SK-MEL-5
structure (smiles),measurement,setting,value
CCCCc1c2c(nc3c1CCc1cc4cc5c(nc4nc1-3)-c1nc3c(c(CCCC)c1CC5)CCC/C3=C\c1ccccc1)/C(=C/c1ccccc1)CCC2,GI50,EKVX,> 100 µM (inactive)
same,GI50,UACC-257,> 100 µM (inactive)
same,GI50,KM-20L2,> 100 µM (inactive)
same,GI50,SR,> 100 µM (inactive)
same,GI50,RXF 393,> 100 µM (inactive)
same,GI50,NCI-H23,> 100 µM (inactive)
same,GI50,SF-539,> 100 µM (inactive)
same,GI50,NCI-H226,> 100 µM (inactive)
same,GI50,SW-620,> 100 µM (inactive)
same,GI50,UO-31,> 100 µM (inactive)
same,GI50,CCRF-CEM,> 100 µM (inactive)
same,GI50,U-251,> 100 µM (inactive)
same,GI50,K562,> 100 µM (inactive)
same,GI50,HCT-116,> 100 µM (inactive)
same,GI50,HCT-15,> 100 µM
same,GI50,RPMI-8226,> 100 µM (inactive)
same,GI50,HL-60,> 100 µM (inactive)
same,GI50,LXFL 529,> 100 µM (inactive)
same,GI50,SNB-19,> 100 µM (inactive)
same,GI50,SN12C,> 100 µM (inactive)
same,GI50,HCC 2998,> 100 µM (inactive)
same,GI50,Malme-3M,> 100 µM (inactive)
same,GI50,UACC-62,> 100 µM (inactive)
same,GI50,SNB-78,> 100 µM (inactive)
same,GI50,A549,> 100 µM (inactive)
same,GI50,LOX IMVI,> 100 µM (inactive)
same,GI50,NCI-H460,> 100 µM (inactive)
same,GI50,DMS-273,> 100 µM (inactive)
same,GI50,TK-10,> 100 µM (inactive)
same,GI50,HOP-62,> 100 µM (inactive)
same,GI50,SK-OV-3,> 100 µM (inactive)
same,GI50,DMS-114,> 100 µM (inactive)
same,GI50,SF-295,> 100 µM (inactive)
same,GI50,SNB-75,> 100 µM (inactive)
same,GI50,KM12,> 100 µM (inactive)
same,GI50,SF-268,> 100 µM (inactive)
same,GI50,786-0,> 100 µM (inactive)
same,GI50,MOLT-4,> 100 µM (inactive)
same,GI50,NCI-H522,> 100 µM (inactive)
same,GI50,IGROV-1,> 100 µM (inactive)
same,GI50,OVCAR-8,> 100 µM (inactive)
same,GI50,OVCAR-3,> 100 µM (inactive)
same,GI50,M14,> 100 µM (inactive)
same,GI50,HT-29,> 100 µM (inactive)
same,GI50,SK-MEL-28,> 100 µM (inactive)
same,GI50,ACHN,> 100 µM (inactive)
same,GI50,DLD-1,> 100 µM (inactive)
same,GI50,COLO 205,> 100 µM (inactive)
COC(=O)C(Cc1ccccc1)NC(=O)c1ccc(CNC(=S)NCc2cccc(CNC(=S)NCc3ccccc3)c2)cc1 (configuration not stated),GI50,EKVX,> 32.2 µM (inactive)
same,GI50,UACC-257,> 35.8 µM (inactive)
same,GI50,SR,> 34.6 µM (inactive)
same,GI50,MCF7,> 32.8 µM (inactive)
same,GI50,RXF 393,20 µM (inactive)
same,GI50,NCI-H23,> 35.4 µM (inactive)
same,GI50,SF-539,> 62.5 µM (inactive)
same,GI50,NCI-H226,> 34.1 µM (inactive)
same,GI50,SW-620,> 32.9 µM (inactive)
same,GI50,UO-31,> 35.2 µM (inactive)
same,GI50,CCRF-CEM,> 34 µM (inactive)
same,GI50,U-251,> 33.5 µM (inactive)
same,GI50,K562,> 32.8 µM (inactive)
same,GI50,HCT-116,> 34 µM (inactive)
same,GI50,HCT-15,> 35.2 µM
same,GI50,RPMI-8226,> 29.1 µM (inactive)
same,GI50,OVCAR-4,> 32.1 µM (inactive)
same,GI50,MDA-N,> 32.5 µM (inactive)
same,GI50,DU-145,> 35.9 µM (inactive)
same,GI50,HL-60,> 62.5 µM (inactive)
same,GI50,SNB-19,> 33.3 µM (inactive)
same,GI50,MDA-MB-231,> 34 µM (inactive)
same,GI50,BT-549,> 33.9 µM (inactive)
same,GI50,PC-3,> 32 µM (inactive)
same,GI50,SN12C,> 31.8 µM (inactive)
same,GI50,SK-MEL-2,> 33.3 µM (inactive)
same,GI50,HCC 2998,> 35 µM (inactive)
same,GI50,Malme-3M,> 34.9 µM (inactive)
same,GI50,UACC-62,> 34.6 µM (inactive)
same,GI50,A549,> 34.5 µM (inactive)
same,GI50,LOX IMVI,> 35.6 µM (inactive)
same,GI50,NCI-H460,> 36.5 µM (inactive)
same,GI50,TK-10,> 35.8 µM (inactive)
same,GI50,HOP-62,28.9 µM (inactive)
same,GI50,Hs-578T,> 29.9 µM (inactive)
same,GI50,SK-OV-3,> 33.9 µM (inactive)
same,GI50,SF-295,> 33.4 µM (inactive)
same,GI50,SNB-75,13.4 µM (inactive)
same,GI50,OVCAR-5,> 34.3 µM (inactive)
same,GI50,KM12,> 29 µM (inactive)
same,GI50,NCI/ADR-RES,> 32.7 µM (inactive)
same,GI50,HOP-92,> 32 µM (inactive)
same,GI50,SF-268,18.3 µM (inactive)
same,GI50,786-0,> 34.6 µM (inactive)
same,GI50,MOLT-4,> 34 µM (inactive)
same,GI50,NCI-H522,> 32.5 µM (inactive)
same,GI50,IGROV-1,> 31.7 µM (inactive)
same,GI50,OVCAR-8,> 31.7 µM (inactive)
same,GI50,CAKI-1,> 36.4 µM (inactive)
same,GI50,OVCAR-3,27.9 µM (inactive)
same,GI50,M14,> 36 µM (inactive)
same,GI50,HT-29,> 33.7 µM (inactive)
same,GI50,SK-MEL-28,> 34 µM (inactive)
same,GI50,MDA-MB-435,> 34.2 µM (inactive)
same,GI50,ACHN,> 34.5 µM (inactive)
same,GI50,T47D,> 33.7 µM (inactive)
same,GI50,COLO 205,> 32.1 µM (inactive)
same,GI50,A498,> 62.5 µM (inactive)
same,GI50,SK-MEL-5,> 32.6 µM (inactive)
